What was measured:
Assay in all cases: relative viability (nuclei count vs DMSO), 5 days (fraction); higher = more cells survive
[1] = compound: CS(=O)(=O)c1ccc(-c2cnc(N)c(C(=O)Nc3ccccc3)n2)cc1 [VE-821] + CS(=O)(=O)N1CCN(Cc2cc3nc(-c4cccc5[nH]ncc45)nc(N4CCOCC4)c3s2)CC1 [Pictilisib] (partner 1 µM)
How it was run: (§1)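 Lung cancer cell lines in 1536-well plates were dosed by pin tool the day after seeding, either with one drug alone or with a fixed anchor-drug dose plus five library-drug doses (not always all listed) in √10 steps. After 5 days, cells were fixed and their nuclei stained in one step (final 0.05% Triton X-100, 1% formaldehyde, 1 ug/ml Hoechst), then counted on 4× images. Relative viability is the nuclei count in treated wells divided by that in vehicle wells. Values are medians of duplicate plates.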

[2] = compound: CS(=O)(=O)c1ccc(-c2cnc(N)c(C(=O)Nc3ccccc3)n2)cc1 [VE-821] + Nc1ncn([C@H]2C[C@H](O)[C@@H](CO)O2)c(=O)n1 [Decitabine] (partner 2 µM)
How it was run: as §1

[3] = compound: CS(=O)(=O)c1ccc(C(=O)Nc2ccc(Cl)c(-c3ccccn3)c2)c(Cl)c1 [Vismodegib] + CS(=O)(=O)N1CCN(Cc2cc3nc(-c4cccc5[nH]ncc45)nc(N4CCOCC4)c3s2)CC1 [Pictilisib] (partner 1 µM)
How it was run: as §1

[4] = compound: N#CC[C@H](C1CCCC1)n1cc(-c2ncnc3[nH]ccc23)cn1 [Ruxolitinib] + CS(=O)(=O)N1CCN(Cc2cc3nc(-c4cccc5[nH]ncc45)nc(N4CCOCC4)c3s2)CC1 [Pictilisib] (partner 1 µM)
How it was run: as §1

| Cell Line | relative viability ([1]; first compound 0.08 µM) | relative viability ([1]; first compound 0.253 µM) | relative viability ([1]; first compound 0.8 µM) | relative viability ([1]; first compound 2.53 µM) | relative viability ([1]; first compound 8 µM) | relative viability ([2]; first compound 0.08 µM) | relative viability ([2]; first compound 0.253 µM) | relative viability ([2]; first compound 0.8 µM) | relative viability ([2]; first compound 2.53 µM) | relative viability ([2]; first compound 8 µM) | relative viability ([3]; first compound 0.08 µM) | relative viability ([3]; first compound 0.253 µM) | relative viability ([3]; first compound 0.8 µM) | relative viability ([3]; first compound 2.53 µM) | relative viability ([3]; first compound 8 µM) | relative viability ([4]; first compound 0.08 µM) | relative viability ([4]; first compound 0.253 µM) | relative viability ([4]; first compound 0.8 µM) | relative viability ([4]; first compound 2.53 µM) | relative viability ([4]; first compound 8 µM) |
| --- | --- | --- | --- | --- | --- | --- | --- | --- | --- | --- | --- | --- | --- | --- | --- | --- | --- | --- | --- | --- |
| NCI-H1975 | 0.312 | 0.216 | 0.298 | 0.267 | 0.26 | 0.4 | 0.38 | 0.358 | 0.381 | 0.324 | 0.294 | 0.311 | 0.264 | 0.304 | 0.307 | 0.302 | 0.254 | 0.285 | 0.243 | 0.231 |
| EPLC-272H | 0.427 | 0.32 | 0.347 | 0.399 | 0.309 | 0.395 | 0.359 | 0.404 | 0.408 | 0.345 | 0.319 | 0.382 | 0.308 | 0.317 | 0.293 | 0.141 | 0.36 | 0.336 | 0.281 | 0.268 |
| EMC-BAC-2 | 0.548 | 0.528 | 0.583 | 0.593 | 0.552 | 1.07 | 0.961 | 0.996 | 0.969 | 0.826 | 0.541 | 0.516 | 0.588 | 0.529 | 0.461 | 0.534 | 0.495 | 0.57 | 0.495 | 0.384 |
| PC-3 [JPC-3] | 0.784 | 0.797 | 0.851 | 0.938 | 0.763 | 0.87 | 0.832 | 0.95 | 0.912 | 0.799 | 0.756 | 0.736 | 0.694 | 0.716 | 0.726 | 0.507 | 0.752 | 0.763 | 0.678 | 0.7 |
| NCI-H1666 | 0.516 | 0.365 | 0.399 | 0.441 | 0.403 | 0.698 | 0.702 | 0.786 | 0.753 | 0.688 | 0.341 | 0.41 | 0.42 | 0.434 | 0.537 | 0.384 | 0.453 | 0.483 | 0.415 | 0.611 |
| NCI-H1915 | 1.06 | 0.785 | 0.982 | 1.07 | 0.652 | 0.284 | 0.262 | 0.312 | 0.266 | 0.318 | 0.997 | 1.01 | 0.851 | 0.826 | 0.727 | 0.894 | 0.925 | 0.952 | 0.803 | 0.835 |
| HCC-15 | 0.947 | 0.757 | 0.781 | 0.92 | 0.749 | 0.74 | 0.726 | 0.69 | 0.954 | 0.766 | 0.754 | 0.758 | 0.711 | 0.748 | 0.597 | 0.701 | 0.77 | 0.789 | 0.703 | 0.737 |
| EKVX | 0.509 | 0.412 | 0.451 | 0.411 | 0.356 | 0.406 | 0.366 | 0.322 | 0.327 | 0.38 | 0.47 | 0.462 | 0.391 | 0.355 | 0.395 | 0.323 | 0.385 | 0.451 | 0.44 | 0.521 |
